From patent publication US8637535B2, “Polymorphic and other crystalline forms of cis-FTC” (Gilead Sciences, Inc., priority 2001, dated 2014)
Values belong to the molecule of their own block, whether it stands above or below them.

Experiments:
[1] = tested on: HIV; conditions: racemic mixture; cited from earlier work
[2] = tested on: HIV; conditions: cited from earlier work
[3] = heated to 160° C., cooled to 25° C., reheated at 10° C./min
Experimental: Thermal events for Form I (−)-cis-FTC upon melting and subsequent cooling to room temperature were observed by DSC. A 5.5500 mg sample of Form I (−)-cis-FTC was heated to 160° C., that is just above the melting temperature for Form I, and then cooled back to 25° C.

[4] = below 130° C.
[5] = solubility values greater than 100 mg/mL are considered highly soluble
Experimental: Equilibrium Solubility: Equilibrium solubility values were obtained using an excess of solid in a stoppered flask shaken in a temperature-controlled water bath at 25 C for 52 hours. Residual solid material was identified postequilibrium by hot-stage microscopy and PXRD. The supernatant was filtered across 0.45-μm membrane filters prior to dilution for HPLC analysis.

[6] = hand trituration 5 minutes or Fitzpatrick mill; DSC and PXRD
Experimental: Milling: (−)-cis-FTC was milled in a Fitzpatrick mill at high speed (4000 RPM), hammers forward with a 000-band screen. The drug was passed through the filter once and collected in a plastic bag.
Two batches of milled Form I (−)-cis-FTC were prepared: one by hand trituration in a mortar and pestle for 5 minutes, another by milling in a Fitzpatrick mill.

Structure (SMILES): Nc1ccn(C2CSC(CO)O2)c(=O)n1 (racemic) [BCH-189, 2-hydroxymethyl-5-(cytosin-1-yl)-1,3-oxathiolane]
activity against HIV relative to AZT [1]: approximately the same activity against HIV as AZT

Structure (SMILES): Nc1nc(=O)n([C@@H]2CS[C@H](CO)O2)cc1F [(−)-(cis)-FTC, 4-amino-5-fluoro-1-(2-(hydroxymethyl)-1,3-oxathiolan-5-yl)-2(1H)-pyrimidinone (2R-cis)]
HIV activity [2]: potent

change in potency by HPLC [3]: no change in potency
thermodynamic stability among phases [4]: most stable phase
solubility category [5]: highly soluble
effect of milling on crystal form [6]: does not affect the crystal form
Structure (SMILES): Nc1nc(=O)n([C@@H]2CS[C@H](CO)O2)cc1F [Form I, β-L-2-hydroxymethyl-5-(5-fluorocytosin-1-yl)-1,3-oxathiolane]
